For 21 compounds, ED50 and melting point results are on record in patent US20110275684A1, “NOVEL BENZOTRIAZOLE DERIVATIVES USEFUL FOR THE TREATMENT OF CNS DISORDERS” (NEUROSEARCH A/S, priority 2009, published 2011).

The first data set relates to psychomotor seizures induced via corneal stimulation (6 Hz) in female NMRI mice. In words: 6 Hz electroshock seizure model (anticonvulsant properties). The data set is classed as in vivo. The settings on record: Mus musculus, po, 32 mA, 3 s corneal stimulation, p.o., pretreatment time 60 mins, vehicle 5% cremaphor, read-out: ED50 (dose that would give a 50% protection from seizures). The text has this: The animal models being used for the discovery of novel antiepileptic drugs are numerous. Among these, a low frequency (6 Hz) electroshock seizure model has recently come into the limelight as a potential model of pharmacoresistant epilepsy (see Epilepsy: a comprehensive textbook, pag. 1477, by By Jerome Engel, Timothy A. Pedley, Jean Aicardi, Marc A Dichter, Solomon Moshé—2007—Medical), and it is therefore an animal model of primary interest in antiepileptic drug discovery. The compounds of the invention have shown remarkable activity to protect against 6 Hz seizures.
The evaluation of the anticonvulsant properties was carried out in female NMRI mice (20-25 g, Taconic, Denmark). The mice were housed in groups (8 per cage according to weight) with food and water available ad libitum The environment was temperature (20±2° C.) and humidity (55±15%) controlled, and consisted of a 12:12 h light-dark cycle (lights on 06:00 h). The experiments were performed according to the Danish Committee for Experiments on Animals. […]
For screening purposes, the test compound was tested at 1 dose at 1 time-point. In the case of protection of 3 or more out of 8 mice, the compound were further evaluated in dose response (N=8/group). […]
Regarding `CCC(C(N)=O)n1nnc2ccccc21` (racemic) [Compound 1, 2-Benzotriazol-1-yl-butyramide], the median effective dose (ED50) stood at 38 mg/kg. For `CC[C@@H](C(N)=O)n1nnc2cc(Br)ccc21` [Compound 12, (2S)-2-(5-Bromobenzotriazol-1-yl)butanamide], the ED50 is 38 mg/kg.

System in another data set: not given
Assay: not given
Conditions: not given
Turning to `Brc1ccc2c(c1)nnn2Cc1c[nH]cn1`, the melting point lay in the range of 178.3 to 180.8 °C.

In turn, `c1ccc2c(c1)nnn2Cc1c[nH]cn1` registered a melting point of 137.8 to 138.9 °C. `Fc1cc(F)c2nnn(Cc3ncc[nH]3)c2c1` yielded a melting point of 166 to 167.5 °C. Compound `CCC(C(N)=O)n1nnc2ccc(Br)cc21` (stereo not drawn) [Compound 3, 2-(6-Bromo-benzotriazol-1-yl)-butyramide] showed a melting point of 181.2 to 182.1 °C. Consider `CS(=O)(=O)c1ccc2nnn(CC(N)=O)c2c1` [Compound 5, 2-(6-Methanesulfonyl-benzotriazol-1-yl)-acetamide], for which the melting point lay within 241.8 to 242.7 °C. In the case of `CCC(C(N)=O)n1nnc2cc(F)cc(F)c21` (stereo not drawn) [Compound 6, 2-(5,7-Difluoro-benzotriazol-1-yl)-butyramide], the melting point lay in the range of 155 to 156.3 °C. Consider `CCC(C(N)=O)n1nnc2c(F)cc(F)cc21` (stereo not drawn) [Compound 7, 2-(4,6-Difluoro-benzotriazol-1-yl)-butyramide], for which the melting point was in the range of 199 to 200.5 °C. Regarding `NC(=O)Cn1nnc2cc(F)cc(F)c21` [Compound 8, 2-(5,7-Difluoro-benzotriazol-1-yl)-acetamide], the melting point fell in the range of 236.5 to 238 °C.

The compound `NC(=O)Cn1nnc2c(F)cc(F)cc21` [Compound 9, 2-(4,6-Difluoro-benzotriazol-1-yl)-acetamide] came in with a melting point of 247.8 to 248.9 °C. `CC(C(N)=O)n1nnc2ccc(F)cc21` (stereo not drawn) [Compound 10, 2-(6-Fluoro-benzotriazol-1-yl)-propionamide] showed a melting point of 156.8 to 158 °C. Regarding `CC(C(N)=O)n1nnc2cc(F)ccc21` (stereo not drawn) [Compound 11, 2-(5-Fluoro-benzotriazol-1-yl)-propionamide], the melting point was 138.6 to 140.1 °C. `NC(=O)Cn1nnc2cc(Br)ccc21` [Compound 13, 2-(5-Bromo-benzotriazol-1-yl)-acetamide] had a melting point of 221.5 to 222.5 °C. As for `CC[C@@H](C(N)=O)n1nnc2c(Cl)cccc21` [Compound 15, (2S)-2-(4-Chlorobenzotriazol-1-yl)butanamide], the melting point lay in the range of 153 to 154.5 °C.

The compound `CC(C)[C@@H](C(N)=O)n1nnc2ccccc21` [Compound 16, (2S)-2-(Benzotriazol-1-yl)-3-methyl-butanamide] came in with a melting point of 164 to 165.7 °C.

Consider `CC(C)CC(C(N)=O)n1nnc2ccccc21` (stereo not drawn) [Compound 17, 2-(Benzotriazol-1-yl)-4-methyl-pentanamide], for which the melting point lay in the range of 177.5 to 178.8 °C. For `CC[C@@H](C(N)=O)n1nnc2cc(Cl)ccc21` [Compound 18, (2S)-2-(5-Chlorobenzotriazol-1-yl)butanamide], the melting point is 175.5 to 177.5 °C. As for `CC[C@H](C(N)=O)n1nnc2cc(Br)ccc21` [Compound 21, (2R)-2-(5-Bromobenzotriazol-1-yl)butanamide], the melting point is 206.2 to 207.3 °C. Same read-out and setting: then `CC[C@H](C(N)=O)n1nnc2c(F)cccc21` [Compound 23, (2R)-2-(4-Fluorobenzotriazol-1-yl)butanamide], with 162.5 to 163.7 °C. With `CC[C@@H](C(N)=O)n1nnc2c(F)cccc21` [Compound 24, (2S)-2-(4-Fluorobenzotriazol-1-yl)butanamide], the melting point was in the range of 163.9 to 165.1 °C.

As usually defined, the ED50 is the midpoint of the dose-response relation. As a reminder, the melting point is the temperature, or range, at which the solid turns liquid.
